The record followed here is patent US4190657A, “Naphthyridine derivatives” (Synthelabo, priority 1976, dated 1980).

Read-outs that look alike come from different tables or passages of the source.

The subject of one series is mice of strain CD 1. Kind of series: acute toxicity, 50 percent lethal dose (LD50), graphical method. Type of series: in vivo. Conditions: mice CD 1, intraperitoneal; Table II. Here is the method:
(§1) The 50 percent lethal dose (LD50) of the compounds is determined for mice of strain CD 1 by a graphical method.
(§2) The results are indicated in Table II below, for a representative number of compounds.

A further series relates to mice of the CD 1 strain. Put plainly: anoxia due to pressure reduction, survival time, mean active dose (MAD). Type of series: in vivo, mice (CD 1 strain). Conditions: mice CD 1, intraperitoneal, 10 minutes before the experiment, 190 mm of mercury, Table II. Here is the method: Mice of the CD 1 strain are kept in an atmosphere depleted in oxygen, by setting up a partial vacuum (190 mm. of mercury, corresponding to 5.25% of oxygen).
The survival time of the animals is noted. This time is increased by the agents capable of favouring oxygenation in the tissues and, in particular, in the brain. The compounds studied are administered intraperitoneally in several doses 10 minutes before the experiment. The percentage increases of the survival time relative to the values obtained with control animals are calculated. The mean active dose (MAD), namely the dose which increases the survival time by 100%, is determined graphically.
The results are indicated in Table II below for a representative number of compounds.

Series [1] is described as follows: acute toxicity, 50 percent lethal dose (LD50), graphical method. Type of series: in vivo. Conditions: mouse, in vivo, ip, mice CD 1, intraperitoneal; Table II; read-out: ACUTE TOXICITY LD50 for intraperitoneal administration. Here is the method: as §1, §2
Series [2] has as its system curarised rats ("sleep" induced by sodium 4-hydroxy-butyrate). Put plainly: action on the duration of the "sleep" induced by sodium 4-hydroxy-butyrate (GHB) in curarised rats. Type of series: in vivo, rats (male, Charles River strain). The note with it: GHB 200 mg/kg i.v.; for TOTAL DURATION of the "sleep": over 75 minutes, comparison 54.12 ± 2.07. Here is the method: This action was determined from the influence of the compounds on the duration of the "sleep" induced by sodium 4-hydroxy-butyrate (GHB) in curarised rats.
The animals used are male rats of the Charles River strain, weighing 200±20 g. The animals, curarised by alloferin given intraperitoneally at the rate of 1 mg/kg, are placed under artificial respiration by means of a mask applied over the snout (respiration frequency: 40/minute; volume respired: 14 cc). The oesophagus is ligatured beforehand so as to avoid air entering the stomach.
Fronto-parietal and occipital cortical electrodes make it possible to record the electrocorticographic activity on a Grass model 79P polygraph at a speed of 6 mm/sec. The animals are prepared under local anaesthesia (2% xylocaine). The rats are kept at a constant temperature (37.5° C.) throughout the experiment. Ten minutes after the end of the preparation of the rat, a dose of 200 mg/kg of Na 4-hydroxybutyrate is injected intravenously into the tail. […]
The traces are evaluated for periods of 15 minutes over the course of 75 minutes after the injection of "GHB". During this period of analysis, the total duration of the "sleep" is determined. A series of 15 comparisons makes it possible precisely to define the duration of the "GHB sleep".
The statistical analysis of the results is carried out with the aid of the Mann-Whitney "U" test.

A short description of series [3]: acute toxicity, 50 percent lethal dose (LD50), graphical method. The note with it: mouse, in vivo, iv; Table III; read-out: TOXICITY intravenous.

As for `CN1CCc2c3n(c4ccccc24)C(=O)CCC31` (stereo not drawn) [2 (m.s.), 1,2,3,3a,4,5-Hexahydro-3-methyl-6H-indolo[3,2,1-de][1,5]naphthyridin-6-one], in the series with mice of strain CD 1, the “ACUTE TOXICITY LD50 for intraperitoneal administration” value came to 52 mg/kg. In the series with mice of the CD 1 strain, the “ANOXIA DUE TO PRESSURE REDUCTION, mean active dose (MAD), dose which increases the survival time by 100%” value amounted to 4.5.

Consider `O=C1CCC2NCCc3c2n1c1ccc(Cl)cc31` (stereo not drawn) [Compound 52], for which the LD50 is 165 mg/kg in series [1] and 110 mg/kg in series [3]. Besides, the “TOTAL DURATION of the "sleep"” value worked out at 37.34 ± 3.35 minutes. seconds in series [2] (10 mg/kg intraperitoneally) and 32.35 ± 5.02 minutes. seconds in series [2] (30 mg/kg intraperitoneally). Moreover, the change in vivo at 10 mg/kg in series [2] (Rattus norvegicus, ip, 1.25 h, 10 mg/kg intraperitoneally, read-out: DIFFERENCE IN % RELATIVE TO THE CONTROLS (total duration of the "sleep")) is -31%. Moreover, the change in vivo at 30 mg/kg in series [2] (Rattus norvegicus, ip, 1.25 h, 30 mg/kg intraperitoneally, read-out: DIFFERENCE IN % RELATIVE TO THE CONTROLS (total duration of the "sleep")) was -40%. In addition, the ED (100% increase in survival time) in the series on mice of the CD 1 strain (Mus musculus, ip, read-out: ANOXIA DUE TO PRESSURE REDUCTION, mean active dose (MAD), dose which increases the survival time by 100%) amounted to 9.5 mg/kg.
